From US12454529B2, “Piperazine cyclic ureas” (SIRONAX LTD., priority 2020, dated 2025) come the findings set out here.

Structures are written as SMILES. Like-named read-outs stand apart in the source and are kept apart here.

The experiment relates to HT-29 cells. The experiment can be described thus: HT-29 cell necrosis/necroptosis inhibition (TNF-α + SMAC mimetic + zVAD-FMK; CellTiter-Glo cell viability). The format is cell-based. The note with it: Homo sapiens, HT-29 cells, TNF-α 10 ng/ml + SMAC mimetic 6 μM + zVAD-FMK 10 μM, 20 hours, geometric mean, 10 points in duplicate. On the procedure:
Compounds 1-319 (denoted as Compound Nos. 1 through 319 in Table 3 and 4) of the disclosure were tested for binding and cellular RIP1 inhibitory activity following the experimental procedures described below.
• Cell line: HT-29 (ATCC® HTB-38™) • Culture medium: McCOY's 5A, Gibco, Cat No. 16600-082 • FBS, Gibco, Cat No. 10099-141C • Trypsin: Gibco, Cat No. 25200-056 • DMSO: Sigma, Cat No. 67-68-5, 1L • Assay plate: Corning #3903 • Compound dilution plate: Corning #3357 • Inducers: TNFα, GenScript, Cat No. Z01001-50, • SmacM, Cat. No., HY-15989, MedChemExpress (MCE) • Z_VAD FMK, TargetMol, T6013 • Cell Titer-Glo® Luminescent Cell Viability Assay Kit: Promega, Cat No. G7573 • EnVision: PerkinElmer, 2105-0010 Methods Cell Seeding
1. HT-29 cells were checked every day to make sure that they were healthy and growing as expected. They were subjected to sub-culturing when they were approximately 80% confluent.
2. The culture medium, McCOY's 5A medium (Gibco, Cat No. 16600-082) with 10% fetal bovine serum or FBS (Gibco, Cat No. 10099-141C), was pre-warmed in a 37° C. water bath for at least 30 min.
3. When the cells had reached a desired level of confluency of 80% in a T75 flask, the medium was aspirated, and the cells were washed with warm phosphate buffered saline or PBS two times.
4. 2-3 ml fresh warm trypsin (Gibco, Cat No. 25200-056) solution was added to the washed cells. The flask with the cells was transferred to a 37° C. incubator.
5. After 5 minutes, the side of the flask was tapped, and the flask was examined under a microscope for detachment of the cells to the flask. If necessary, the cells were kept in the incubator for an additional 5-10 minutes, with occasional tapping, until lifting was complete.
6. The trypsin reaction was neutralized by transferring 6-9 ml cell culture medium to sterile 15 ml conical tubes, and by centrifuging the cell culture at 300×g for 7 minutes to pellet the cells (supernatant decanted).
7. The cells were resuspended in fresh cell culture medium and the cell counting was performed using a hemocytometer.
8. 100 μl of the resuspended cell culture medium containing ˜5,000 cells were transferred into each well of the sterile 96-well cell culture plate (Corning 3903) and cultured overnight at 37° C. with 5% CO2.
Compound Titration and Treatment
1. All test compounds were dissolved in DMSO (Dimethyl sulfoxide) to create a 20 mM stock.
2. 3 μl of each compound 20 mM stock was mixed with 27 μl DMSO, and the compound solution was further diluted at a titration ratio of 1:3 (20 μl compound solution+40 μl DMSO) till the 10 points end.
3. All culture medium was removed from assay plates filled with HT-29 cell cultures. The cells were then washed with 1 PBS, and resuspended in fresh, FBS-free McCOY's 5A medium containing a cocktail of TNF-α (10 ng/ml), a SMAC mimetic compound (6 μM) and Z-VAD-fluoromethylketone or zVAD-FMK (10 μM) to stimulate the HT-29 cells to increase RIP1 kinase levels and necroptosis.
4. 0.5 μL of the diluted compound solution was added to the corresponding 96-well assay plates.
5. The assay plates were incubated for 20 hours at 37° C. with 5% CO2.
1. The CellTiter-Glo® Luminescent Cell Viability Assay was employed to detect the ATP levels of viable HT-29 cells.
2. The CellTiter-Glo® buffer and the lyophilized substrate were equilibrated to room temperature prior to use.
3. The CellTiter-Glo® substrate was resuspended with CellTiter-Glo® buffer, then mixed by gently vortexing to obtain a homogeneous solution.
4. 20 μl the enzyme/substrate mixture was transferred by multi-channel pipetting into 96-well assay plates.
5. The assay plates were placed on an orbital shaker and the contents were shaken for 3 minutes to induce cell lysis.
6. The assay plates were incubated at room temperature for 10 minutes to stabilize the luminescent signal.
7. The luminescence signals were read and recorded with EnVision.
8. The geometric mean EC50 values were calculated from 10 points response dose with duplicates. In

Setting [1] is: read-out: EC50 (Cell activity; Necrosis/Necroptosis Inhibitory Activity, Compounds 143-323).
Setting [2] is: read-out: EC50 (Cell activity; Necrosis/Necroptosis Inhibitory Activity, Compounds 1-142).

As to `CCn1ncnc1-c1nc(N2CCN(C(=O)N3N=CC[C@H]3c3cc(F)cc(C#N)c3)CC2)ncc1F` [Compound 167, (S)-3-(1-(4-(4-(1-ethyl-1H-1,2,4-triazol-5-yl)-5-fluoropyrimidin-2-yl)piperazine-1-carbonyl)-4,5-dihydro-1H-pyrazol-5-yl)-5-fluorobenzonitrile], under setting [1], the EC50 (in general, the concentration that produces a half-maximal response) fell in the range of 0.0001 to 0.1 µM. On the same count and under the same terms, with `Cc1nc(C(N)=O)nn1-c1nc(N2CCN(C(=O)N3N=CC[C@H]3c3cncc(F)c3)CC2)ncc1F` [Compound 253, (S)-1-(5-fluoro-2-(4-(5-(5-fluoropyridin-3-yl)-4,5-dihydro-1H-pyrazole-1-carbonyl)piperazin-1-yl)pyrimidin-4-yl)-5-methyl-1H-1,2,4-triazole-3-carboxamide] the figure was 0.0001 to 0.1 µM; with `Cc1cnn(C)c1-c1nc(N2CCN(C(=O)N3N=CC[C@H]3c3cc(F)cc(C#N)c3)CC2)sc1CO` [Compound 266, (S)-3-(1-(4-(4-(1,4-dimethyl-1H-pyrazol-5-yl)-5-(hydroxymethyl)thiazol-2-yl)piperazine-1-carbonyl)-4,5-dihydro-1H-pyrazol-5-yl)-5-fluorobenzonitrile], 1 to 10 µM. Turning to `N#Cc1cccc([C@@H]2CC=NN2C(=O)N2CCN(c3nccc(-n4cc(C(N)=O)cn4)n3)CC2)c1` [Compound 106, (S)-1-(2-(4-(5-(3-cyanophenyl)-4,5-dihydro-1H-pyrazole-1-carbonyl)piperazin-1-yl)pyrimidin-4-yl)-1H-pyrazole-4-carboxamide], the 50% effective concentration (EC50) under setting [2] lay within 0.0001 to 0.1 µM. In the case of `Cc1nn(-c2ccnc(N3CCN(C(=O)N4N=CC[C@H]4c4cncc(F)c4)CC3)n2)c(C)c1C#N` [Compound 283, (S)-1-(2-(4-(5-(5-fluoropyridin-3-yl)-4,5-dihydro-1H-pyrazole-1-carbonyl)piperazin-1-yl)pyrimidin-4-yl)-3,5-dimethyl-1H-pyrazole-4-carbonitrile], under setting [1], the EC50 lay in the range of 0.0001 to 0.1 µM. Same read-out and setting: the value for `Cc1nc(C)n(-c2nc(N3CCN(C(=O)N4N=CCC4c4ncccc4Cl)CC3)ncc2Cl)n1` (stereo not drawn) [Compound 220, (4-(5-chloro-4-(3,5-dimethyl-1H-1,2,4-triazol-1-yl)pyrimidin-2-yl)piperazin-1-yl)(5-(3-chloropyridin-2-yl)-4,5-dihydro-1H-pyrazol-1-yl)methanone] was 0.0001 to 0.1 µM. On to `N#Cc1cc(F)cc([C@@H]2CC=NN2C(=O)N2CCN(c3ncc(F)c(-n4cnc(C#N)n4)n3)CC2)c1` [Compound 125, (S)-1-(2-(4-(5-(3-cyano-5-fluorophenyl)-4,5-dihydro-1H-pyrazole-1-carbonyl)piperazin-1-yl)-5-fluoropyrimidin-4-yl)-1H-1,2,4-triazole-3-carbonitrile], for which the EC50 under setting [2] fell in the range of 0.0001 to 0.1 µM. Still for that read-out and setting: with `O=C(N1CCN(c2ccnc(-c3ccc[nH]3)n2)CC1)N1N=CC[C@H]1c1cc(F)cc(F)c1` [Compound 5, (S)-(4-(2-(1H-pyrrol-2-yl)pyrimidin-4-yl)piperazin-1-yl)(5-(3,5-difluorophenyl)-4,5-dihydro-1H-pyrazol-1-yl)methanone] the figure was 0.0001 to 0.1 µM; with `N#Cc1cc(F)cc([C@@H]2CC=NN2C(=O)N2CCN(c3ncc(F)c(-n4cc(C#N)cn4)n3)CC2)c1` [Compound 127, (S)-1-(2-(4-(5-(3-cyano-5-fluorophenyl)-4,5-dihydro-1H-pyrazole-1-carbonyl)piperazin-1-yl)-5-fluoropyrimidin-4-yl)-1H-pyrazole-4-carbonitrile], 0.0001 to 0.1 µM; with `N#Cc1cccc([C@@H]2CC=NN2C(=O)N2CCN(c3ncc(F)c(-n4cc(C(N)=O)cn4)n3)CC2)c1` [Compound 109, (S)-1-(2-(4-(5-(3-cyanophenyl)-4,5-dihydro-1H-pyrazole-1-carbonyl)piperazin-1-yl)-5-fluoropyrimidin-4-yl)-1H-pyrazole-4-carboxamide], 0.0001 to 0.1 µM. `NC(=O)c1cnn(-c2nc(N3CCN(C(=O)N4N=CC[C@H]4c4ccccc4)CC3)ncc2F)c1` [Compound 111, (S)-1-(5-fluoro-2-(4-(5-phenyl-4,5-dihydro-1H-pyrazole-1-carbonyl)piperazin-1-yl)pyrimidin-4-yl)-1H-pyrazole-4-carboxamide]: the EC50 under setting [2] fell in the range of 0.0001 to 0.1 µM. `Cc1nc(C(F)(F)F)nn1-c1ccnc(N2CCN(C(=O)N3N=CC[C@H]3c3cc(F)cc(C#N)c3)CC2)n1` [Compound 147, (S)-3-fluoro-5-(1-(4-(4-(5-methyl-3-(trifluoromethyl)-1H-1,2,4-triazol-1-yl)pyrimidin-2-yl)piperazine-1-carbonyl)-4,5-dihydro-1H-pyrazol-5-yl)benzonitrile]: the EC50 under setting [1] is 0.0001 to 0.1 µM.

Regarding `Cc1nc(C#N)nn1-c1nc(N2CCN(C(=O)N3N=CC[C@H]3c3cc(F)cc(F)c3)CC2)ncc1F` [Compound 254, (S)-1-(2-(4-(5-(3,5-difluorophenyl)-4,5-dihydro-1H-pyrazole-1-carbonyl)piperazin-1-yl)-5-fluoropyrimidin-4-yl)-5-methyl-1H-1,2,4-triazole-3-carbonitrile], under setting [1], the EC50 lay within 0.0001 to 0.1 µM.

Take `Cc1noc(C)c1-c1nc(N2CCN(C(=O)N3N=CC[C@H]3c3cc(F)cc(F)c3)CC2)ncc1F` [Compound 108, (S)-(5-(3,5-difluorophenyl)-4,5-dihydro-1H-pyrazol-1-yl)(4-(4-(3,5-dimethylisoxazol-4-yl)-5-fluoropyrimidin-2-yl)piperazin-1-yl)methanone]: the EC50 under setting [2] is 0.0001 to 0.1 µM. For `Cc1nn(-c2nc(N3CCN(C(=O)N4N=CC[C@H]4c4cc(F)cc(C#N)c4)CC3)ncc2F)c(C)c1NC(=O)CC1CC1` [Compound 195, (S)—N-(1-(2-(4-(5-(3-cyano-5-fluorophenyl)-4,5-dihydro-1H-pyrazole-1-carbonyl)piperazin-1-yl)-5-fluoropyrimidin-4-yl)-3,5-dimethyl-1H-pyrazol-4-yl)-2-cyclopropylacetamide], the concentration giving a half-maximal response (EC50) under setting [1] lay in the range of 0.0001 to 0.1 µM. `NC(=O)c1cnn(-c2nc(N3CCN(C(=O)N4N=CC[C@H]4c4cccc(F)c4)CC3)ncc2F)c1` [Compound 110, (S)-1-(5-fluoro-2-(4-(5-(3-fluorophenyl)-4,5-dihydro-1H-pyrazole-1-carbonyl)piperazin-1-yl)pyrimidin-4-yl)-1H-pyrazole-4-carboxamide]: the EC50 under setting [2] is 0.0001 to 0.1 µM. `Cn1cnc(-c2ccc(F)c(N3CCN(C(=O)N4N=CC[C@H]4c4cc(F)cc(C#N)c4)CC3)n2)n1` [Compound 177, (S)-3-fluoro-5-(1-(4-(3-fluoro-6-(1-methyl-1H-1,2,4-triazol-3-yl)pyridin-2-yl)piperazine-1-carbonyl)-4,5-dihydro-1H-pyrazol-5-yl)benzonitrile]: under setting [1], the half-maximal effective concentration (EC50) is 0.1 to 1 µM.

As to `N#Cc1cc(F)cc([C@@H]2CC=NN2C(=O)N2CCN(c3ncc(F)c(-c4cc[nH]n4)n3)CC2)c1` [Compound 22, (S)-3-fluoro-5-(1-(4-(5-fluoro-4-(1H-pyrazol-3-yl)pyrimidin-2-yl)piperazine-1-carbonyl)-4,5-dihydro-1H-pyrazol-5-yl)benzonitrile], under setting [2], the half-maximal effective concentration (EC50) fell in the range of 0.0001 to 0.1 µM.
